The results in this text go back to patent publication US9550792B2, “Polycyclic substituted pyrazole kinase activity inhibitors and use thereof” (priority 2013, dated 2017).

One data set deals with T1, CDK2/A (Homo sapiens, UniProt P24941).
T1 construct: purchased
The data set can be described thus: Inhibitory activity to CDK2 (FRET). The data set is classed as biochemical. To be noted: read-out: CDK2 inhibition % (1 × 10^−6 mol/L). The protocol: CDK2/A was purchased in the form of a kit or obtained through purification.
Procedures: CDK2/A is diluted to a suitable concentration with kinase diluent. The kinase reaction mixture contains CDK2/A, peptide substrate, HEPES (pH7.5), BRIJ-35, MgCl2 and EDTA. CDK2 phospho-peptide substrate is used as the control of 100% phosphorylation and ATP-free as the control of 0% phosphorylation. After 1 h, the diluted Development Reagent A is added into the reaction system. Then the reaction is allowed to proceed for 1 h and then quenched with Stop Reagent. […] The inhibitions of the tested compounds are calculated according to the formula.

A further data set concerns the target T2, Aurora A (Homo sapiens, UniProt O14965).
T2 construct: purchased
T2 sequence (O14965 1-403): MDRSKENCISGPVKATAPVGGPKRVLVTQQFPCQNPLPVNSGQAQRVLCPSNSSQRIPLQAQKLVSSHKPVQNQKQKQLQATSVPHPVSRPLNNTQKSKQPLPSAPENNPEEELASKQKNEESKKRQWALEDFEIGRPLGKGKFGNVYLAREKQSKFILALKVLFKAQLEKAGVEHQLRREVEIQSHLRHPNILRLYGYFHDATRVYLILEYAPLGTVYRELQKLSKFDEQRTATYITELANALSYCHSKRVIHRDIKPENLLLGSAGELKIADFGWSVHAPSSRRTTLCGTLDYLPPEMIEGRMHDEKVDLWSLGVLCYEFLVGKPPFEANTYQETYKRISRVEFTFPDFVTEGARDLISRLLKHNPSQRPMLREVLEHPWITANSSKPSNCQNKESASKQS
The data set can be described thus: Inhibitory activity to Aurora A (FRET). It counts as biochemical. To be noted: read-out: Aurora A inhibition % (1 × 10^−6 mol/L). The protocol:
The inhibitory activities of the synthesized compounds for Aurora A is determined by fluorescence resonance energy transfer (FRET) and were compared with the positive control drug so as to screen the compounds with better activities. Aurora A was purchased in the form of a kit or obtained through purification. Procedures: Aurora A is diluted to a suitable concentration with kinase diluent. The kinase reaction mixture contains Aurora A, peptide substrate, HEPES (pH7.5), BRIJ-35, MgCl2 and EDTA. Aurora A phospho-peptide substrate is used as the control of 100% phosphorylation and ATP-free as the control of 0% phosphorylation. After 1 h, the diluted Development Reagent A is added into the reaction system. Then the reaction is allowed to proceed for 1 h and then quenched with Stop Reagent. The excitation wavelength is 400 nm and the fluorescence intensity is detected at 445 nm (coumarin) and 520 nm (fluorescein). The inhibitions of the tested compounds are calculated according to the formula.

`O=C(Nc1ccc(CN2CCOCC2)cc1)c1n[nH]cc1Nc1nccc2ccsc12` [Compound I-30, 4-(7-thieno[2,3-c]pyridylamino)-N-(4-((4-morpholinyl)methyl)phenyl)-1H-3-pyrazolecarboxamide] returned a melting point of 271 to 273 °C. The inhibition at 1 µM on CDK2/A is 73.1%. Also, the inhibition at 1 µM on Aurora A worked out at 55.1%.
With `O=C(Nc1ccc(CN2CCOCC2)cc1)c1n[nH]cc1Nc1nccc2occc12` [Compound I-34, 4-(4-furo[3,2-c]pyridylamino)-N-(4-((4-morpholinyl)methyl)phenyl)-1H-3-pyrazolecarboxamide], the melting point lay within 268 to 271 °C. The inhibition at 1 µM on CDK2/A turned out to be 65.8%. Also, the inhibition at 1 µM on Aurora A was 50.5%.
In the same order, the values of `CN1CCN(Cc2ccc(NC(=O)c3n[nH]cc3Nc3nccc4ccoc34)cc2)CC1` [Compound I-37, 4-(7-furo[2,3-c]pyridylamino)-N-(4-((4-methyl-1-piperazinyl)methyl)phenyl)-1H-3-pyrazolecarboxamide] are 258 to 261 °C, 72.2% and 59.6%.
For the molecule `O=C(Nc1ccc(CN2CCOCC2)cc1)c1n[nH]cc1Nc1nccc2ccoc12` [Compound I-38, 4-(7-furo[2,3-c]pyridylamino)-N-(4-((4-morpholinyl)methyl)phenyl)-1H-3-pyrazolecarboxamide], the melting point fell in the range of 268 to 272 °C. The inhibition at 1 µM on CDK2/A was found to be 64.8%. On Aurora A, the inhibition at 1 µM was 51%.
For `O=C(Nc1ccc(CN2CCOCC2)cc1)c1n[nH]cc1Nc1ccnc2ccoc12` [Compound I-40, 4-(7-furo[3,2-b]pyridylamino)-N-(4-((4-morpholinyl)methyl)phenyl)-1H-3-pyrazolecarboxamide] the same measures were 275 to 278 °C, 20.2% and 40.7%.
As for `CN1CCN(Cc2ccc(NC(=O)c3n[nH]cc3Nc3ccnc4occc34)cc2)CC1` [Compound I-41, 4-(4-furo[2,3-b]pyridylamino)-N-(4-((4-methyl-1-piperazinyl)methyl)phenyl)-1H-3-pyrazolecarboxamide], the melting point lay in the range of 273 to 276 °C. The inhibition at 1 µM at CDK2/A was determined as 56.2%. For the same molecule, the inhibition at 1 µM at Aurora A worked out at 42.6%.
On to `O=C(Nc1ccc(CN2CCOCC2)cc1)c1n[nH]cc1Nc1ccnc2occc12` [Compound I-42, 4-(4-furo[2,3-b]pyridylamino)-N-(4-((4-morpholinyl)methyl)phenyl)-1H-3-pyrazolecarboxamide], for which the melting point lay within 269 to 271 °C. Moreover, at CDK2/A, the inhibition at 1 µM is 54.2%. Also, at Aurora A, the inhibition at 1 µM came to 51.8%.
